As usually defined, the MIC90 is the lowest concentration that inhibits either 90% of growth or 90% of the strains tested, depending on the study. In general, MIC refers to the smallest concentration in the dilution series that meets the test's criterion for growth inhibition.

In brackets after ≈: the same amount, converted by molar mass. Where a SMILES comes first, the peptide text is derived from it. [ ]: non-standard residue; d: D form. dNMeR = CN[C@H](CCCNC(=N)N)C(=O)O

In one data set the test system is Escherichia coli. In kind it is cell-based.
In another data set the test system is Pseudomonas aeruginosa. In kind it is cell-based.
The test system of a further data set is Acinetobacter baumannii. In kind it is cell-based.
The next data set concerns Klebsiella pneumoniae. In kind it is cell-based.
The test system of the next data set is Staphylococcus aureus. The data set is described as follows: microbe, parasite or virus in culture. In kind it is cell-based.
A further data set deals with Proteinase K (Parengyodontium album, UniProt P06873). The experiment in a line: Proteolytic digestion with Proteinase K. In kind it is in vitro ADME. The following applies: 100 µM peptide, 1X TBS pH 7.5, ratio 1:200, 37 °C, HPLC, 0 to 720 min. On the procedure:
Figure S15: Proteolytic degradation profiles of a. 4d and b. 4f after incubation with Proteinase K. The five overlaid chromatograms represent […] different time-points: 0 min, 2 min, 60 min, 480 min and 720 min. The identity of the peptide at different time points were monitored using MALDI-TO F.
Figure S16: a. PI uptake by A. baumannii and S. aureus, when treated with different concentrations of 4f for 10 min, monitored using flow-cytometry. b. SEM images of untreated control cells and 5 times of […]
Radial Distribution Function
The radial distribution function (g(r)) was computed to investigate the local density of specific lipid headgroups around key peptide residues. […]
The interaction energy between the peptide and membrane components was computed to quantify the binding affinity and identify the driving forces for the interaction. Using GROMACS, the production trajectories were re-analyzed by defining energy groups for the protein and different membrane components. […]
The metabolic stability of peptides (1,1d,1f and 3,3d,3f) were evaluated against two proteases-chymotrypsin and trypsin at a concentration of 100 µM. The metabolic stability of 4f was evaluated by incubating 100 µM of peptide with a more promiscuous enzyme i.e. Proteinase K. Peptides were incubated with different enzyme to peptide ratio for different time intervals at 37 ° C. […]

A further data set concerns human red blood cells. The following applies: red cells of human.
Data set [1] concerns polymyxin B-resistant A. baumannii. The following applies: induced polymyxin B-resistant A. baumannii.
The subject of data set [2] is polymyxin B-resistant P. aeruginosa. The following applies: induced polymyxin B-resistant P. aeruginosa.
The test system of data set [3] is human peripheral blood mononuclear cells (PBMCs). The following applies: 24 h, 40.
Data set [4] is described as follows: Acute in-vivo toxicity assessment. The following applies: mice.
A short description of data set [5]: Rapid equilibrium dialysis (RED) plasma protein binding. The following applies: plasma spiked with 100 μM peptide, buffer pH 7.4, 37 °C, 4 h, HPLC. A general note: In equilibrium dialysis only unbound substance equilibrates across the membrane.

Proteinase K, sequence (P06873 106-384): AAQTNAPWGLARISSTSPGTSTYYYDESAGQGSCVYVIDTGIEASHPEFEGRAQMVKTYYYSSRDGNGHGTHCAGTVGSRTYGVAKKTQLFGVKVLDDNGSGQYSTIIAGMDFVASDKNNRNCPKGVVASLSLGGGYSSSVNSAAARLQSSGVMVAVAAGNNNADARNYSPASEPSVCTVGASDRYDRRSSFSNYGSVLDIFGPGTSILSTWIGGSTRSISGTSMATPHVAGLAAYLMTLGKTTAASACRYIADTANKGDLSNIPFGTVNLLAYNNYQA

Turning to `CC[C@@H](C)[C@@H](NC(=O)[C@@H](CCCNC(=N)N)N(C)C(=O)[C@H](C)NC(=O)[C@@H](Cc1ccc(O)cc1)NC(=O)[C@H](NC(=O)[C@H](NC(=O)[C@@H](CCCNC(=N)N)NC(=O)[C@@H](Cc1ccccc1)NC(=O)[C@H](NC(=O)[C@@H](Cc1c[nH]c2ccccc12)NC(=O)[C@H](N)CCCCN)[C@H](C)O)C(C)C)[C@H](C)O)C(=O)N[C@@H](C(=O)N[C@H](Cc1ccc(O)cc1)C(=O)N[C@H](CCCNC(=N)N)C(=O)N[C@H](CCCNC(=N)N)C(=O)N[C@@H](C(=O)N[C@H](CCCNC(=N)N)C(N)=O)[C@H](C)O)[C@H](C)O` [4f] (H-[dK][dW][dT][dF][dR][dV][dT][dY]A[dNMeR][dI][dT][dY][dR][dR][dT][dR]-NH2), in the data set with Escherichia coli, the “MIC90” value came out at 0.4 µM (≈ 0.915 µg/mL). Also, the “MIC (μM) ec” value in the data set on Escherichia coli was 0.4 µM (≈ 0.915 µg/mL). The “MIC (μM) pa” value in the data set on Pseudomonas aeruginosa was 1.2 µM (≈ 2.75 µg/mL). The “MIC (μM) ab” value against Acinetobacter baumannii is 1.6 µM (≈ 3.66 µg/mL). For the same compound, the “MIC (μM) kp” value with Klebsiella pneumoniae worked out at 1.6 µM (≈ 3.66 µg/mL). Also, the “MIC (μM) sa” value in the data set with Staphylococcus aureus turned out to be 0.8 µM (≈ 1.83 µg/mL). For the same compound, at Proteinase K, the protection against proteolysis result was “total protection against proteolysis”. In the data set on human red blood cells, the “MHC10 (μM), minimum hemolytic concentration” value came to 50 µM. The MIC in data set [1] came out at 1.6 µM (≈ 3.66 µg/mL); in data set [2] it was 2.4 µM (≈ 5.49 µg/mL). Further, in [3], the “median viability of PBMCs” value is about 85%. In addition, the “signs of acute toxicity” value was “no signs of toxicity” in data set [4] (10 mg kg^−1, intraperitoneally, monitored till 72 h); “mild symptoms such as wrinkled skin and loss in body weight” in [4] (20 mg kg^−1, intraperitoneally, at 48 h, transient); “Visible signs of toxicity such as wrinkled skin, poor motility, and loss in body weight” in data set [4] (40 mg kg^−1, intraperitoneally). The mortality result in data set [4] (10, 20 and 40 mg kg^−1, intraperitoneally) is listed as “none of the doses led to mortality”. The plasma protein binding entry in data set [5] was “very high plasma protein binding”.

The values above are taken from paper PMC12520178, “Turn-engineering tunes the conformational rigidity of β-hairpin AMPs in achieving membrane selectivity and killing drug-resistant ESKAPE pathogens” (Chemical Science, 2025).
